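GI50 = concentration required for 50% inhibition of growth. The concentration for full growth arrest is given as TGI.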
Experiments:
Test in all cases: inhibition of tumour cell growth, NCI panel, 384-well format; in the data active = GI50 below about 0.43 µM; inactive = the rest
[1] = test system: OVCAR-4 ovarian
[2] = test system: SK-MEL-28 melanoma
[3] = test system: HT29 colon
[4] = test system: HS 578T breast
[5] = test system: EKVX NSCLC
[6] = test system: BT-549 breast
[7] = test system: SNB-75 CNS
[8] = test system: HL-60(TB) leukemia
[9] = test system: SK-MEL-5 melanoma
[10] = test system: SR leukemia
[11] = test system: TK-10 renal
[12] = test system: UACC-257 melanoma
[13] = test system: A549 NSCLC
[14] = test system: PC-3 prostate
[15] = test system: NCI-H522 lung
[16] = test system: SNB-19 CNS
[17] = test system: SK-OV-3 ovarian
[18] = test system: NCI-H322M lung
[19] = test system: NCI-H23 lung
[20] = test system: 786-0 renal
[21] = test system: SF-539 CNS
[22] = test system: LOX IMVI melanoma
[23] = test system: RXF 393 renal
[24] = test system: T-47D breast
[25] = test system: SW-620 colon
[26] = test system: NCI-H226 lung
[27] = test system: CAKI-1 renal
[28] = test system: U251 glioblastoma
[29] = test system: RPMI-8226 leukemia
[30] = test system: ACHN renal
[31] = test system: OVCAR-8 ovarian
[32] = test system: MDA-MB-231 breast
[33] = test system: HCT-15 colon
[34] = test system: UO-31 renal
[35] = test system: HCC-2998 colon
[36] = test system: OVCAR-5 ovarian
[37] = test system: NCI-H460 NSCLC
[38] = test system: HCT-116 colon
[39] = test system: DU-145 prostate
[40] = test system: IGROV1 ovarian
[41] = test system: HOP-92 NSCLC
[42] = test system: SF-295 CNS
[43] = test system: MDA-MB-435 melanoma
[44] = test system: A498 renal
[45] = test system: CCRF-CEM leukemia
[46] = test system: NCI/ADR-RES ovarian
[47] = test system: UACC-62 melanoma
[48] = test system: M14 melanoma
[49] = test system: COLO 205 colon
[50] = test system: HOP-62 NSCLC
[51] = test system: MOLT-4 leukemia
[52] = test system: MCF7 breast
[53] = test system: MALME-3M melanoma
[54] = test system: MDA-MB-468 breast
[55] = test system: SF-268 CNS
[56] = test system: KM12 colon
[57] = test system: OVCAR-3 ovarian
[58] = test system: SN12C renal

C[C@H](Nc1ncnc2nc[nH]c12)c1cc2cccc(Cl)c2c(=O)n1-c1ccccc1
12.5 µM: TGI [51]
92.1 µM: TGI [35]
> 40.2 µM: TGI [42]
> 79.5 µM: TGI [14]
> 72 µM: TGI [18]
> 78.7 µM: TGI [29]
14.9 µM: TGI [54]
10.2 µM: TGI [40]
> 79.2 µM: TGI [17]
> 90.4 µM: TGI [13]
> 85.1 µM: TGI [9]
> 100 µM: TGI [3] | TGI [5] | TGI [11] | TGI [12] | TGI [16] | TGI [19] | TGI [21] | TGI [22] | TGI [25] | TGI [26] | TGI [28] | TGI [30] | TGI [31] | TGI [32] | TGI [33] | TGI [36] | TGI [37] | TGI [38] | TGI [39] | TGI [43] | TGI [46] | TGI [48] | TGI [49] | TGI [50] | TGI [52] | TGI [56] | TGI [58]
1.3 µM: TGI [23]
90.7 µM: TGI [45]
49.8 µM: TGI [53]
90.6 µM: TGI [1]
> 93.1 µM: TGI [34]
> 64.9 µM: TGI [20]
36.6 µM: TGI [6]
inactive: GI50 [1] 11.4 µM | GI50 [2] 8.44 µM | GI50 [3] 18.8 µM | GI50 [4] 3.41 µM | GI50 [5] 15.2 µM | GI50 [6] 1.29 µM | GI50 [8] 3.53 µM | GI50 [9] 18.2 µM | GI50 [10] 14 µM | GI50 [11] 15 µM | GI50 [12] 27 µM | GI50 [13] 14.5 µM | GI50 [14] 1.46 µM | GI50 [15] 16.8 µM | GI50 [16] 44.5 µM | GI50 [17] 14.3 µM | GI50 [18] 15.5 µM | GI50 [19] 25.9 µM | GI50 [20] 2.8 µM | GI50 [21] 19.7 µM | GI50 [22] 32.5 µM | GI50 [24] 1.6 µM | GI50 [25] > 100 µM | GI50 [26] 33.4 µM | GI50 [27] 4.09 µM | GI50 [28] 47.3 µM | GI50 [29] 25.2 µM | GI50 [30] 16.8 µM | GI50 [31] 25.8 µM | GI50 [32] 25.5 µM | GI50 [33] 35.2 µM | GI50 [34] 3.89 µM | GI50 [35] 29.7 µM | GI50 [36] 32.9 µM | GI50 [37] 15.9 µM | GI50 [38] 28.7 µM | GI50 [39] 24.6 µM | GI50 [40] 2.43 µM | GI50 [41] 2.31 µM | GI50 [42] 4.95 µM | GI50 [43] > 100 µM | GI50 [44] 1.09 µM | GI50 [45] 4.6 µM | GI50 [46] > 100 µM | GI50 [47] 5.86 µM | GI50 [48] 23.9 µM | GI50 [49] 42.8 µM | GI50 [50] 30.7 µM | GI50 [51] 2.37 µM | GI50 [52] 4.31 µM | GI50 [53] 6.18 µM | GI50 [54] 1.23 µM | GI50 [55] 24.7 µM | GI50 [56] 43.2 µM | GI50 [57] 3.65 µM | GI50 [58] 3.25 µM
98.8 µM: TGI [2]
40.1 µM: TGI [10]
> 36.4 µM: TGI [8]
> 80 µM: TGI [27]
> 48.4 µM: TGI [57]
> 64.2 µM: TGI [47]
2.41 µM: TGI [7]
12.8 µM: TGI [44]
27.7 µM: TGI [4]
> 84.7 µM: TGI [55]
77.7 µM: TGI [41]
active: GI50 [7] 0.103 µM | GI50 [23] 0.104 µM
> 83.3 µM: TGI [15]
17.6 µM: TGI [24]
